Earlier results on two substances are cited in patent US20190030061A1, “COBALAMIN COMPOSITIONS AND USE THEREOF FOR IMPROVING COGNITIVE FUNCTION” (NOVA SOUTHEASTERN UNIVERSITY, priority 2016, published 2019).

The data set deals with neuronal cells.

As to IGF1: insulin-like growth factor 1, the GSH levels entry is on record as “increased” and the cysteine uptake result is recorded as “stimulates”.

For Amyloid Beta, the GSH levels entry is recorded as “decrease” and the cysteine uptake result is “decrease”.
